The source of these data is patent US11285153B2, “Substituted pyrimidine piperazine compound and use thereof” (SUNSHINE LAKE PHARMA CO., LTD., priority 2017, dated 2022).

One data set relates to mice. Nature of the data set: Forced swimming test of mice, stationary time. In kind it is in vivo, C57BL/6 mice. Particulars: for Stationary time: 3 mg/kg intraperitoneally 30 minutes before the test, last 4 minutes of 6 minutes, Mean ± SEM, vehicle 120.4 ± 16.5. Here is the method: The effects of the compound of the invention on the stationary time in a forced swimming test of mice were evaluated in the present invention.
Animals (C57BL/6 mice) were fed in the animal house barrier system one week earlier to adapt to the rearing environment of animal house. Three days before the trial, each animal was touched 2-3 minutes/day. On the day of the experiment, the animals were transferred to the operating room 60 minutes in advance, and were randomly divided into a vehicle group (20% HP-β-CD+80% H2O), a 40 mg/kg dose group of hydrochloride of Desipramine as the standard reference compound, 1, 3, 10 mg/kg dose groups of the phosphate of the test compound, a 3 mg/kg dose group of the hydrochloride of Vilazone, and a 3 mg/kg dose group of hydrochloride of compound A, a total of 7 groups, the number of animals in each group was 15-16. The vehicle, the standard reference compound of Desipramine, the test compound, Vilazodone or Compound A were intraperitoneally injected 30 minutes before the test. The mice were placed in the experimental apparatus during the test. The experimental apparatus was a cylindrical organic transparent glass tank (23 cm high and 12 cm in diameter). The water level was 8 cm from the bottom and the water temperature was 22±2° C. The length of each test was 6 minutes. There was one animal in each sink, recorded by an Ethovision software and a double-blind manual counting analysis. The stationary time of the last 4 minutes of the animal was recorded. All the experimental results were expressed as mean ±standard error (Mean ±SEM). Prism 6.0 statistical software was used to test and analyze the results. The significance of the difference was P<0.05, and P<0.01 was very significant.

Data set [1] addresses T1, humanized 5-HT transporter (SERT) (Homo sapiens, UniProt P31645).
T1 construct: expressed in transfected cells; host or cells: CHO cells, membrane homogenate
As to the kind of experiment: Affinity to humanized 5-HT transporter (SERT), [3H]imipramine binding, transfected CHO cell membranes. The settings on record: 2 nM [3H]imipramine, 22° C., 60 minutes. Here is the method: Example A: Evaluation of the Affinity of the Compound of the Invention to Humanized 5-HT Transporter Transfected by CHQ Cells
To a mixture of cell membrane homogenate protein (12 μg), 2 nM [^3H] imipramine, buffer (50 mM Tris-HCl (pH 7.4), 120 mM NaCl, 5 mM KCl, and 0.1% BSA) was added test compound or not under a condition of 22° C. The reaction mixture was incubated for 60 minutes.
To the mixture of the above condition was added 10 μM imipramine to measure the non-specific binding value.
The incubated samples were quickly filtered through a glass fiber membrane (GF/B, Packard) impregnated with 0.3% PEI by a 96-well cell collector (Unifilter, Packard) under vacuum, and repeatedly rinsed with cold 50 mM Tris-HCl and 150 mM NaCl for several times. The filter was dried and the residual radioactivity was calculated in a scintillation counter (Topcount, Packard) by using scintillation fluid (Microscint 0, Packard). The experimental results were expressed as a percentage of inhibition of specific binding of radioligand to the control group.
The standard reference compound was imipramine. The competitive curve was obtained by a series of concentration experiments and the IC50 was calculated.

Another data set deals with T2, 5-HT1A receptor (Homo sapiens, UniProt P08908).
T2 construct: host or cells: human HEK-293 cells, membrane homogenate
T2 sequence (P08908 1-422): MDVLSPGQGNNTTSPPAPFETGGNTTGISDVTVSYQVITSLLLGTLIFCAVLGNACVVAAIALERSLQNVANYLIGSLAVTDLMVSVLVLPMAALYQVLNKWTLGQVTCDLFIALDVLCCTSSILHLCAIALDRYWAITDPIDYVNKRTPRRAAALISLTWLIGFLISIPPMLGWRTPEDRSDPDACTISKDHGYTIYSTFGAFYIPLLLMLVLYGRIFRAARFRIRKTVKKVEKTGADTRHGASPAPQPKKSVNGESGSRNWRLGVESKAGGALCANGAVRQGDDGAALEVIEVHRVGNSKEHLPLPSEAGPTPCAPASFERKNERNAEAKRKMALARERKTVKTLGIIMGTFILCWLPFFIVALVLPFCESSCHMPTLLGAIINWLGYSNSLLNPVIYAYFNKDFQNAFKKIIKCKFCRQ
As to the kind of experiment: h5-HT1A binding affinity test, [3H]8-OH-DPAT, HEK-293 cell membranes. Particulars: 0.3 nM [3H]8-OH-DPAT, 22° C., 60 minutes; from IC50 by ChengPrusoff equation. As to the method:
Example B: h5-HT1A Binding Affinity Test
To a mixture of human HEK-293 cell membrane homogenate (36 μg protein), 0.3 nM [^3H]8-OH-DPAT (Perkin-Elmer) and buffer (50 mM Tris-HCl (pH 7.4), 10 mM MgSO4, 0.5 mM EDTA, 2 μg/ml aprotinine) was added test compound or not under a condition of 22° C. The reaction mixture was incubated for 60 minutes.
The standard reference compound was 8-OH-DPAT. To a mixture of the above condition was added 10 μM 8-OH-DPAT to measure the non-specific binding value. A competitive curve was obtained by testing the data of a series of concentrations of 8-OH-DPAT in different experiments.
The incubated samples were quickly filtered through a glass fiber membrane (GF/B, Packard) impregnated with 0.3% PEI by a 96-well cell collector (Unifilter, Packard) under vacuum, and repeatedly rinsed with cold 50 mM Tris-HCl for several times. The filter was dried and the residual radioactivity was calculated in a scintillation counter (Topcount, Packard) by using scintillation fluid (Microscint 0, Packard). The experimental results were expressed as a percentage of inhibition of specific binding of radioligand to the control group.
The binding assay of [^3H]8-OH-DPAT (0.3 nM) to the 5-HT1A receptor in human HEK-293 cells was performed by a scintillation proximity assay of the membrane. The test compound needed to be tested at least three times at a concentration exceeding 6 log, and the data was subjected to nonlinear regression analysis by a Hill equation curve to obtain an IC50 value, which was then calculated by the ChengPrusoff equation to obtain a Ki value.

Data set [2] is described as follows: Pharmacokinetic evaluation in rats after intravenous or intragastric administration. It is filed as in vivo. The settings on record: SD, rat, plasma. Here is the method:
Pharmacokinetics of the compound of the invention in rats, dogs and monkeys were studied and evaluated.
The compound was administered to the tested animals in the form of 5% DMSO+5% Kolliphor HS15+2% (2% HCl)+88% Saline saline solution or 10% DMSO+10% Kolliphor HS15+80% normal saline solution. For the intravenous administration group, the dose was 1 mg/kg, and then the venous blood (0.3 mL) was taken at a time of 0, 0.083, 0.25, 0.5, 1.0, 2.0, 5.0, 7.0, and 24 hours after administration, and centrifuged at 3,000 or 4,000 rpm for 10 minutes. The plasma solution was collected and stored at −20° C. or −70° C. For the intragastric administration group, the dose was 2.5 mg/kg, and then the venous blood (0.3 mL) was taken at a time of 0, 0.083, 0.25, 0.5, 1.0, 2.0, 5.0, 7.0, and 24 hours after administration, and centrifuged at 3,000 or 4,000 rpm for 10 minutes. The plasma solution was collected and stored at −20° C. or −70° C.
The plasma solutions obtained from each of the above groups were subjected to LC/MS/MS analysis.
The LC/MS/MS system for analysis included the Agilent 1200 Series vacuum degasser, binary pump, orifice autosampler, thermostatic column oven, and Agilent G6430A triple quadrupole mass spectrometer with electrospray ionization (ESI) source.
Analysis was performed using a waters XBridge C18 (2.1×50 mm) column. The column was 3.5 μM and injection volume was 5 μL. The analytical conditions were as follows: mobile phase A: water+2 mM ammonium formate+0.1% formic acid mobile phase B: methanol+2 mM ammonium formate+0.1% formic acid. The flow rate was 0.4 mL/min.

T1 sequence (P31645 whole entry): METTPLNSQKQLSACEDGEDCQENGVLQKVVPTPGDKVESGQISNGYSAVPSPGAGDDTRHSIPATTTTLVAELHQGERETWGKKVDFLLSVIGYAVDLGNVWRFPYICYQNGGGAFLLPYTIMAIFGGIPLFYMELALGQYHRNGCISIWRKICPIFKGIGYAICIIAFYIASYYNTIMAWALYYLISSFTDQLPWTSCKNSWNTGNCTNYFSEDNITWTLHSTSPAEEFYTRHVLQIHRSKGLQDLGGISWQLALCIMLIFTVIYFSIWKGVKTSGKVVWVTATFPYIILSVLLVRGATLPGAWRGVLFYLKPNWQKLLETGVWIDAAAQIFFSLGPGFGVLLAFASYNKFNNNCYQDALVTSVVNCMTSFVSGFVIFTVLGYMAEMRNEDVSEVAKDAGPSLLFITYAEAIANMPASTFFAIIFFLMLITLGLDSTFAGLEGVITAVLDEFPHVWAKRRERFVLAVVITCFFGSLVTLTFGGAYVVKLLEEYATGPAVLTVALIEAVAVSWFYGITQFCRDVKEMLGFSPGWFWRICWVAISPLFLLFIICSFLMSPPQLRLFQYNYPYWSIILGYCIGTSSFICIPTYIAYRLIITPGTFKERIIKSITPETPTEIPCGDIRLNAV

In the case of `N#Cc1ccc2[nH]cc(CCCCN3CCN(c4ccc5oc(C(N)=O)cc5c4)CC3)c2c1` [Vilazodone], in the data set with mice, the “Stationary time” value is 107.8 ± 16.1 s. The “Effect on stationary time compared with the vehicle group” value with mice (forced swimming test, same dose (3 mg/kg)) is on record as “slightly reduce the stationary time of mice, but there is no significant difference”.

In turn, `N#Cc1ccc2[nH]cc(CCCCN3CCN(c4ncc(-c5ccc(C(N)=O)nc5)cn4)CC3)c2c1` [Example 3, 5-(2-(4-(4-(5-cyano-1H-indol-3-yl)butyl)piperazin-1-yl)pyrimidin-5-yl)pyridine-2-carboxamide] gave an IC50 in data set [1] of 0.79 nM. On 5-HT1A receptor, this molecule displayed a Ki of 2.19 nM.

Turning to `Cc1nc(-c2cnc(N3CCN(CCCc4c[nH]c5ccc(C#N)cc45)CC3)nc2)sc1C(N)=O` [drawing 37], the “Stationary time” value with mice was determined as 75.1 ± 13.3 s.

As for `N#Cc1ccc2[nH]cc(CCCN3CCN(c4ncc(-c5ccc(C(N)=O)nc5)cn4)CC3)c2c1` [Example 4, 5-(2-(4-(3-(5-cyano-1H-indol-3-yl)propyl)piperazin-1-yl)pyrimidin-5-yl)pyridine-2-carboxamide], the IC50 in data set [1] was 0.81 nM. Besides, on 5-HT1A receptor, the Ki worked out at 4.13 nM.

`N#Cc1ccc2[nH]cc(CCCN3CCN(c4ncc(-c5cccc(C(N)=O)n5)cn4)CC3)c2c1` [Example 6, 6-(2-(4-(3-(5-cyano-1H-indol-3-yl)propyl)piperazin-1-yl)pyrimidin-5-yl)pyridine-2-carboxamide] yielded an IC50 in data set [1] of 0.23 nM. The molecule further registered a Ki on 5-HT1A receptor of 1.1 nM.

In data set [1], `N#Cc1ccc2[nH]cc(CCCCN3CCN(c4ncc(-c5cccc(C(N)=O)n5)cn4)CC3)c2c1` [Example 5, 6-(2-(4-(4-(5-cyano-1H-indol-3-yl)butyl)piperazin-1-yl)pyrimidin-5-yl)pyridine-2-carboxamide] displayed an IC50 of 0.66 nM. Besides, at 5-HT1A receptor, the affinity, expressed as Ki, was 0.53 nM.

Molecule `N#Cc1ccc2[nH]cc(CCCN3CCN(c4ncc(-c5ccc(C(N)=O)cn5)cn4)CC3)c2c1` [Example 2, 6-(2-(4-(3-(5-cyano-1H-indol-3-yl)propyl)piperazin-1-yl)pyrimidin-5-yl)nicotinamide] displayed an IC50 in data set [1] of 0.45 nM. The Ki on 5-HT1A receptor came to 4.31 nM.

Consider `CCOC(=O)c1sc(-c2cnc(N3CCN(CCCc4c[nH]c5ccc(C#N)cc45)CC3)nc2)nc1C` [Example 10, ethyl 2-(2-(4-(3-(5-cyano-1H-indol-3-yl)propyl)piperazin-1-yl)pyrimidin-5-yl)-4-methylthiazole-5-formate], for which, in data set [1], the IC50 was 0.13 nM. At 5-HT1A receptor, this molecule came in with a Ki of 2.16 nM.

In turn, `Cc1nc(-c2cnc(N3CCN(CCCCc4c[nH]c5ccc(C#N)cc45)CC3)nc2)sc1C(N)=O` [Example 7, 2-(2-(4-(4-(5-cyano-1H-indol-3-yl)butyl)piperazin-1-yl)pyrimidin-5-yl)-4-methylthiazole-5-formamide] displayed an IC50 in data set [1] of 0.77 nM. The same molecule had a Ki on 5-HT1A receptor of 1.01 nM.

Regarding `N#Cc1ccc2[nH]cc(CCCCN3CCN(c4ncc(-c5ccc(C(N)=O)cn5)cn4)CC3)c2c1` [Example 1, 6-(2-(4-(4-(5-cyano-1H-indol-3-yl)butyl)piperazin-1-yl)pyrimidin-5-yl)nicotinamide], the IC50 in data set [1] is 0.68 nM. The Ki on 5-HT1A receptor amounted to 2.13 nM.

The molecule `CCOC(=O)c1sc(-c2cnc(N3CCN(CCCCc4c[nH]c5ccc(C#N)cc45)CC3)nc2)nc1C` [Example 9, ethyl 2-(2-(4-(4-(5-cyano-1H-indol-3-yl)butyl)piperazin-1-yl)pyrimidin-5-yl)-4-methylthiazole-5-formate] yielded an IC50 in data set [1] of 0.45 nM. Also, at 5-HT1A receptor, the Ki was 0.99 nM.

In turn, `Cc1nc(-c2cnc(N3CCN(CCCc4c[nH]c5ccc(C#N)cc45)CC3)nc2)sc1C(N)=O` [Example 8, 2-(2-(4-(3-(5-cyano-1H-indol-3-yl)propyl)piperazin-1-yl)pyrimidin-5-yl)-4-methylthiazole-5-formamide] returned an IC50 in data set [1] of 0.33 nM. For the same molecule, the Ki at 5-HT1A receptor worked out at 2.14 nM. In addition, in data set [2] (iv, 1 mg/kg), the AUC(0-inf) was 1820 ng·h/mL, the AUC(0-t) amounted to 1740 ng·h/mL, the Cmax came out at 1000 ng/mL and the Tmax worked out at 0.083 h. In data set [2] (iv, 1 mg/kg), this molecule had a clearance of 9.22 mL/min/kg and a half-life of 1.72 h. For the same molecule, in data set [2] (iv, 1 mg/kg, read-out: Vss), the Vd was 1.3 L/kg. Also, in data set [2] (po, 2.5 mg/kg), the AUC(0-inf) was found to be 1550 ng·h/mL, the AUC(0-t) was 1740 ng·h/mL, the concentration peaked (Cmax) at 590 ng/mL and the Tmax turned out to be 1 h. In data set [2] (po, 2.5 mg/kg), this molecule showed a bioavailability of 39.8% and a half-life of 1.58 h.
